Assay results reported in PMC11078216, “Discovery of potent and selective activity-based probes (ABPs) for the deubiquitinating enzyme USP30” (RSC Chemical Biology, 2024).

Tests used:
UCHL1 [1] = target: T1, UCHL1 (Homo sapiens, UniProt P09936); experiment: Cross-screening against unrelated DUB UCHL1; assay type: biochemical; details: Table S1, ESI
T1 sequence (P09936 1-223): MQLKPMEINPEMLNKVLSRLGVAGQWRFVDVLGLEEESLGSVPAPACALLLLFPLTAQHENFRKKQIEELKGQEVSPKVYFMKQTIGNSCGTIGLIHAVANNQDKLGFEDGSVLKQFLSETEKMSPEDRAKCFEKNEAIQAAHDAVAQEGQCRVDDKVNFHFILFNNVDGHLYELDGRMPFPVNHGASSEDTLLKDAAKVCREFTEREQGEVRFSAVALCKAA

UCHL1 [2] = target: T1, UCHL1; experiment: In-cell target engagement using HA-Ub-VME competition, immunoblot; assay type: cell-based; design: endogenous in cells; host or cells: HEK293T; details: HEK293T cells, 1 hour, in-lysate HA-Ub-VME competition, western blot
Procedure: We next determined cellular engagement of endogenous USP30 with IMP-2587 or IMP-2586. […] In-cell concentration-dependent competition by IMP-2587 and IMP-2586 for USP30 were confirmed below 100 nM probe (Fig. 2b and c), whilst engagement of an exemplar unrelated DUB, UCHL1, occurred only at a much higher concentration (30 000 nM). We hypothesise that incomplete modification of USP30 by HA-Ub-VME is likely due to limited retention of USP30 activity in cell lysates, which have likely had the USP30 transmembrane domain compromised, highlighting the potential utility of a small molecule USP30 ABP applicable directly in intact cells. Direct USP30 target engagement by IMP-2587 and IMP-2586 was confirmed in HEK293T cells following 1 h probe treatment followed by cell lysis and CuAAC bio-orthogonal ligation to capture reagent azido-TAMRA-biotin (AzTB) for IMP-2587 or alkyne-TAMRA-biotin for IMP-2586 (Fig. 3a).[27] […] This unspecific background labelling is presumably due to the previously reported higher off-target CuAAC reactivity of an alkyne-bearing capture reagent, applied here due to incorporation of an azide tag in IMP-2586.[28] Moreover, the labelling of USP30 was further confirmed by biotin pulldown and immunoblotting.
2) USP30 in-cell engagement analysis […]
Protein concentration was determined by DC Protein assay (Bio-RAD). […]

SMILES | activity against UCHL1 (cross-screening) (UCHL1 [1]) | concentration at which UCHL1 engagement occurred (UCHL1 [2])
N#CN1CC[C@@H](NC(=O)c2cc(-c3ccccc3Oc3ccc(N=[N+]=[N-])cc3)n[nH]2)C1 [IMP-2586] | no activity | 30 000 nM
C#Cc1cccc(-c2cc(NC(=O)CC3CCN(C#N)C3)on2)c1 (stereo not shown) [IMP-2587] | no activity | 30 000 nM
